Test results: patent US11655239B2 (SHANGHAI INSTITUTE OF MATERIAL MEDICA, CHINESE ACADEMY OF …, priority 2019, dated 2023)

What was measured:
[1] = target: PDGFR-β (Homo sapiens (Human), UniProt P09619); experiment: Enzyme selectivity test (ELISA), PDGFR-β; type: biochemical
Description: (§1) 1) Enzyme reaction substrate Poly(Glu, Tyr) 4:1 was diluted to 20 μg/mL with potassium-free PBS (10 mM sodium phosphate buffer, 150 mM NaCl, pH 7.2-7.4), and the microtiter plate was coated with 125 μL/well and placed at 37° C. for 12-16 hours of reaction. The liquid in the well was discard. The plate was washed three times with T-PBS (potassium-free PBS containing 0.1% Tween-20, 200 μL/well), 5 minutes each time. The ELISA plate was dried in an oven at 37° C. for 1 to 2 hours.
(§2) 2) Reaction buffer (50 mM HEPES pH 7.4, 50 mM MgCl2, 0.5 mM MnCl2, 0.2 mM Na3VO4, 1 mM DTT) diluted ATP solution (49 μL) was added to each well, 1 μL of the compound to be tested was added to each well, and then 50 μL of DDR2 kinase domain recombinant protein diluted in the reaction buffer was added to start the reaction. Two control wells without ATP were set in each experiment. The plate placed on a shaker (100 rpm) at 37° C. for 1 hour of reaction. The liquid in the well was discarded and the plate was washed three times with T-PBS.
(§3) 3) Antibody PY99 dilution solution (the antibody was diluted 1:500 with T-PBS containing BSA 5 mg/mL) was added at 100 μL/well, and shaken on a shaker at 37° C. for 0.5 hour of reaction. The liquid in the well was discarded and the plate was washed three times with T-PBS.
(§4) 4) Horseradish peroxidase labeled goat anti-murine secondary antibody dilution solution (the antibody is diluted 1:2000 with T-PBS containing BSA 5 mg/ml) was added at 100 μL/well, and shaken on a shaker at 37° C. for 0.5 hour of reaction. The liquid in the well was discarded and the plate was washed three times with T-PBS.
(§5) 5) 2 mg/ml of OPD color developing solution [diluted with 0.1 M citric acid-sodium citrate buffer (pH=5.4) containing 0.03% H2O2] was added at 100 μL/well and reacted for 1 to 10 minutes at 25° C. in the dark.
(§6) 6) 2M H2SO4 was added at 50 μL/well to stop the reaction, and a tunable wavelength microplate reader VERSAmax was used for reading at a wavelength of 490 nm.
(§7) The IC50 value was obtained by four-parameter regression using the software that came with the microplate reader. […]

[2] = target: ErbB4 (Homo sapiens (Human), UniProt Q15303); experiment: Enzyme selectivity test (ELISA), ErbB4; type: biochemical
Description: as §1, §2, §3, §4, §5, §6, §7

[3] = target: ALK (Homo sapiens (Human), UniProt Q9UM73); experiment: Enzyme selectivity test (ELISA), ALK; type: biochemical
Description: as §1, §2, §3, §4, §5, §6, §7

[4] = tested on: pulmonary fibrosis induced by bleomycin in mice; experiment: MASSON staining and α-SMA immunohistochemical staining of lung sections; type: in vivo, mouse; conditions: Effect example 5, 30, 60, 90 mg/kg oral qd 12 days
Description: The grouping of mice is the same as that in Effect example 2.
1) Dewaxing to water of the paraffin sections: the sections were put into xylene I (20 minutes)-xylene II (29 minutes)-absolute ethanol I (5 minutes)-absolute ethanol II (5 minutes)-75% ethanol (5 minutes), and then washed with tap water.
2) Potassium dichromate staining: the sections were soaked in potassium dichromate overnight and washed with tap water.
3) Iron hematoxylin staining: iron hematoxylin solution A and B were mixed in an equal ratio to form an iron hematoxylin staining solution, then the sections were put into iron hematoxylin for about 3 minutes, washed with tap water, differentiated with a solution of hydrochloric acid in ethanol, and then rinsed with tap water.
4) Ponceau red acid fuchsin staining: the sections were put into a Ponceau red acid fuchsin solution for 5 to 10 minutes and rinsed with tap water.
5) Phosphomolybdic acid staining: the sections were put into an aqueous phosphomolybdic acid solution for 1 to 3 minutes.
6) Aniline blue staining: after the phosphomolybdic acid staining, the sections were not washed with water, but directly put into an aniline blue staining solution for staining for 3 to 6 minutes.
7) Differentiation: the sections were differentiated with 1% glacial acetic acid, and dehydrated with two cylinders of absolute ethanol. […]

ErbB4, sequence (Q15303 26-1308, species assumed): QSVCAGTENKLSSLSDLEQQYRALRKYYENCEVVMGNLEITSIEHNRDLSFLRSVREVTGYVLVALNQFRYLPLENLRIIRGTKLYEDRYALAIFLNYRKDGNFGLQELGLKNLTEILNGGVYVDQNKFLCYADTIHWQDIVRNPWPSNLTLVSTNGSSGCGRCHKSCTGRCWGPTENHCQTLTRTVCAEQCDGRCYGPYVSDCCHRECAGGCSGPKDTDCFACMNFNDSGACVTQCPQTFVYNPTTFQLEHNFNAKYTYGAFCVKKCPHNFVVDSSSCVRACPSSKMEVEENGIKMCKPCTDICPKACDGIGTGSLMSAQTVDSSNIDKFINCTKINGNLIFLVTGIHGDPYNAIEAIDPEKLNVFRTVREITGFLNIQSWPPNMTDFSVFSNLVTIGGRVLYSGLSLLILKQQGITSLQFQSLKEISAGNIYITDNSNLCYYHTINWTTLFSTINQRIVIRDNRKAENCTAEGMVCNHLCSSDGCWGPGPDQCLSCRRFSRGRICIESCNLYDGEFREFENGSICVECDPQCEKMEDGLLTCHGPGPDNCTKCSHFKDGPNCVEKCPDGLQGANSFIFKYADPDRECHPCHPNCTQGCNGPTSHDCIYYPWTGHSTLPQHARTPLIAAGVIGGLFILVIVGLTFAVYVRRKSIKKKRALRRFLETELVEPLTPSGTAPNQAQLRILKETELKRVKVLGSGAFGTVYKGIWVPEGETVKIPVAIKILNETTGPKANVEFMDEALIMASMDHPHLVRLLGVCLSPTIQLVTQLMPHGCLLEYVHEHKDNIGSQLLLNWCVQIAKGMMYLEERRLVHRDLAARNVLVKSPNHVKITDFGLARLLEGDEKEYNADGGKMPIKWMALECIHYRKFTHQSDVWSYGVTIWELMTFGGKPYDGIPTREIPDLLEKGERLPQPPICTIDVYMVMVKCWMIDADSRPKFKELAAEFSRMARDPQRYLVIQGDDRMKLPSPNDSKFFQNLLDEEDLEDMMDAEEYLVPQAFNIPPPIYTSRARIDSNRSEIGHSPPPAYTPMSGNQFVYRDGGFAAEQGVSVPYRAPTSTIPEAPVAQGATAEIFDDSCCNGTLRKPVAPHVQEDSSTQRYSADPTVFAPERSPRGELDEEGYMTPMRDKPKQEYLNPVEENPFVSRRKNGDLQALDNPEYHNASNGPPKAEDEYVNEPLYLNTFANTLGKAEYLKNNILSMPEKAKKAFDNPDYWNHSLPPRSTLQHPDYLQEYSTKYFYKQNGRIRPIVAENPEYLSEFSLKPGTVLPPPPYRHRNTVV
ALK, sequence (Q9UM73 19-1620, species assumed): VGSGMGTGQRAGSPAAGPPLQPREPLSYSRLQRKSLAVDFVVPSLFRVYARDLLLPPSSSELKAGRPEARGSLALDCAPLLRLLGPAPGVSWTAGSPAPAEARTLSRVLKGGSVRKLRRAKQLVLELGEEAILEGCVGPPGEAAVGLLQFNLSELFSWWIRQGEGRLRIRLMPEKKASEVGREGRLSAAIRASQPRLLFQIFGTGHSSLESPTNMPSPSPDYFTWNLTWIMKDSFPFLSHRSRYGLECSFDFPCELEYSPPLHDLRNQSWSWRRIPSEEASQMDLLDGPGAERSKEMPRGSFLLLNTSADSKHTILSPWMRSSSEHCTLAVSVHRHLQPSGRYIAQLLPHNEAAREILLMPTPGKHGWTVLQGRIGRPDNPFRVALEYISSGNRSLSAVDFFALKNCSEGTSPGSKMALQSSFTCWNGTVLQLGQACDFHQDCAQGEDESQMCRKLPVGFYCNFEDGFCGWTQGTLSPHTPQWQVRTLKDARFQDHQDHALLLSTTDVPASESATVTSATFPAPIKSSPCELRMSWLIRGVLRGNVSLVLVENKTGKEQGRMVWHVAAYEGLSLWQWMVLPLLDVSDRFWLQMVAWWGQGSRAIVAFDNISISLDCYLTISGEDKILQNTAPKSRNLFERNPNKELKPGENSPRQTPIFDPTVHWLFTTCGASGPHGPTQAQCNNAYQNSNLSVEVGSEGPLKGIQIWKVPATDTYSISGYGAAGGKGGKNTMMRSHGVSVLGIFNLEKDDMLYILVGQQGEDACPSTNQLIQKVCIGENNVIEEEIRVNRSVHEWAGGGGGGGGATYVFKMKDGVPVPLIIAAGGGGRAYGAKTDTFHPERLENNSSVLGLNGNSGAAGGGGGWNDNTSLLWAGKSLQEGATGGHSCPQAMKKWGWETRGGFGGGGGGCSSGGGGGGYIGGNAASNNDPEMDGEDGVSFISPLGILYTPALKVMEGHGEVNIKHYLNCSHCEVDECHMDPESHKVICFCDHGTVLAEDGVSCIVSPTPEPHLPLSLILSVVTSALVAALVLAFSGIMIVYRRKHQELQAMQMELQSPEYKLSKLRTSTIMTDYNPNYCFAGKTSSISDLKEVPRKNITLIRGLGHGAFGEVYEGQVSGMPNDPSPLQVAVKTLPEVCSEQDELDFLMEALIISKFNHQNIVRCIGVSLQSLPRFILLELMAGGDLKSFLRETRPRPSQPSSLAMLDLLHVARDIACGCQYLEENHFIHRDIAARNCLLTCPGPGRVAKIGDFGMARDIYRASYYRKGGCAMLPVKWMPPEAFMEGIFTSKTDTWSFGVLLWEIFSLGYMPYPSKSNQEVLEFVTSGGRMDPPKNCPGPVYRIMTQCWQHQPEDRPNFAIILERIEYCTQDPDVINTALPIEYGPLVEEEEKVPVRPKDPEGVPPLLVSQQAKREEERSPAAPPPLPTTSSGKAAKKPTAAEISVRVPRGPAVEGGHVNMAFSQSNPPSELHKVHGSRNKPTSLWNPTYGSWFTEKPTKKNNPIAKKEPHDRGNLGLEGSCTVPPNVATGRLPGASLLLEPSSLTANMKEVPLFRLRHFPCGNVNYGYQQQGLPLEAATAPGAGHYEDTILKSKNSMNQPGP
PDGFR-β, sequence (P09619 33-1106, species assumed): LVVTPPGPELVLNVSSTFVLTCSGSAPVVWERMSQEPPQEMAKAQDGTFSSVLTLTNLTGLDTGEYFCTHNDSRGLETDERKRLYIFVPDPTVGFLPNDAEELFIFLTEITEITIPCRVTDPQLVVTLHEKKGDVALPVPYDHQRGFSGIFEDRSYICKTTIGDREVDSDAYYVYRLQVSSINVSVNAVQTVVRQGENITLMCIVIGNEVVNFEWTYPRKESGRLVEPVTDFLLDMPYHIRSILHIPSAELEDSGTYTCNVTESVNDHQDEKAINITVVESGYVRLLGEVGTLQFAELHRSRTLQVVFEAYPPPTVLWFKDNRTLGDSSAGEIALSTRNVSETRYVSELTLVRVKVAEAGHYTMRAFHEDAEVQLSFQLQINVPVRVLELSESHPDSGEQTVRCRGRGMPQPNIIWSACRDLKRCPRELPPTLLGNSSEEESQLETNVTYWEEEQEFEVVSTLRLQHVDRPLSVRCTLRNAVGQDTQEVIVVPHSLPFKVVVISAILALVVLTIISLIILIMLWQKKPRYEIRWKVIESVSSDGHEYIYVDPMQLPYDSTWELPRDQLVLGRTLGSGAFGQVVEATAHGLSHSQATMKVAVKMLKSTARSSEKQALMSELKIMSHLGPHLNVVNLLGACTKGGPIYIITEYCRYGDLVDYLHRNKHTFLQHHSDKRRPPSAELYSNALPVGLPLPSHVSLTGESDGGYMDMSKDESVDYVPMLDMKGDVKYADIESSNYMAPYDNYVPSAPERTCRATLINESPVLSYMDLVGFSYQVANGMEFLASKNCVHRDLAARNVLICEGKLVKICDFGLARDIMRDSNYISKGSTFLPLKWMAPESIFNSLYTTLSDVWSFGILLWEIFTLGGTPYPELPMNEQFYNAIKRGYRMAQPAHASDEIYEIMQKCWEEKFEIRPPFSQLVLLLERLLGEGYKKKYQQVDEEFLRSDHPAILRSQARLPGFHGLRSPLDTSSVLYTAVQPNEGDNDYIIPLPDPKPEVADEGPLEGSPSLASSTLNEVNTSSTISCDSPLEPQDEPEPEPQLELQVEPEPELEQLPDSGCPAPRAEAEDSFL

`O=C(Nc1cccc(C(F)(F)F)c1)c1ccc(C2CC2)c(-c2ccc3nc(Nc4cnn(C5CC5)c4)ncc3c2)c1` [Compound S15, 4-cyclopropyl-3-(2-((1-cyclopropyl-1H-pyrazol-4-yl)amino)quinazolin-6-yl)-N-(3-(trifluoromethyl)phenyl)benzamide] was tested, and the IC50 [1] was over 1000 nM, the IC50 [2] was over 10 nM and the IC50 [3] was over 1000 nM. The “expression of collagen and α-SMA (staining, immunohistochemistry)” value [4] was “decrease the expression of collagen and α-SMA in a dose-dependent manner” and the “pulmonary fibrosis, MASSON staining” value [4] was “significantly reduce BLM-induced lung injury and inflammation, and can also reduce pulmonary fibrosis”.
